Results taken from PubChem BioAssay (NCI).
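48-hour exposure; five concentrations; linearly interpolated endpoints. Here, GI50 denotes the concentration required for 50% inhibition of growth. Definition used: TGI = concentration required for complete inhibition of growth.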

Key:
Test in all cases: growth of human tumour cells (NCI), 48 h
[1] = test system: 786-0 renal
[2] = test system: A498 renal
[3] = test system: A549 NSCLC
[4] = test system: ACHN renal
[5] = test system: BT-549 breast
[6] = test system: CAKI-1 renal
[7] = test system: CCRF-CEM leukemia
[8] = test system: COLO 205 colon
[9] = test system: DU-145 prostate
[10] = test system: EKVX NSCLC
[11] = test system: HCC-2998 colon
[12] = test system: HCT-116 colon
[13] = test system: HCT-15 colon
[14] = test system: HL-60(TB) leukemia
[15] = test system: HOP-62 NSCLC
[16] = test system: HS 578T breast
[17] = test system: HT29 colon
[18] = test system: IGROV1 ovarian
[19] = test system: K-562 leukemia
[20] = test system: KM12 colon
[21] = test system: LOX IMVI melanoma
[22] = test system: M14 melanoma
[23] = test system: MCF7 breast
[24] = test system: MDA-MB-231 breast
[25] = test system: MDA-MB-435
[26] = test system: MOLT-4 leukemia
[27] = test system: NCI-H226 lung
[28] = test system: NCI-H23 lung
[29] = test system: NCI-H460 lung
[30] = test system: NCI-H522 lung
[31] = test system: NCI/ADR-RES ovarian
[32] = test system: OVCAR-3 ovarian
[33] = test system: OVCAR-4 ovarian
[34] = test system: OVCAR-5 ovarian
[35] = test system: OVCAR-8 ovarian
[36] = test system: PC-3 prostate
[37] = test system: RPMI-8226 leukemia
[38] = test system: RXF 393 renal
[39] = test system: SF-268 CNS
[40] = test system: SF-295 CNS
[41] = test system: SF-539 CNS
[42] = test system: SK-MEL-2 melanoma
[43] = test system: SK-MEL-28 melanoma
[44] = test system: SK-MEL-5 melanoma
[45] = test system: SK-OV-3 ovarian
[46] = test system: SN12C renal
[47] = test system: SNB-19 CNS
[48] = test system: SNB-75 CNS
[49] = test system: SR leukemia
[50] = test system: SW-620 colon
[51] = test system: T-47D breast
[52] = test system: TK-10 renal
[53] = test system: U251 CNS
[54] = test system: UACC-257 melanoma
[55] = test system: UACC-62 melanoma
[56] = test system: UO-31 renal

SMILES: CC(C)(O)/C=C/C(=O)[C@](C)(O)[C@H]1[C@H](O)C[C@@]2(C)[C@H]3CC=C4[C@@H](C[C@H](O)C(=O)C4(C)C)[C@]3(C)C(=O)C[C@]12C
- GI50 [1]: 51.1 nM
- TGI [1]: 249 nM
- GI50 [2]: 17.7 nM
- TGI [2]: 47.3 nM
- GI50 [3]: 51.1 nM
- TGI [3]: > 16700 nM
- GI50 [4]: 53.7 nM
- TGI [4]: > 16700 nM
- GI50 [5]: 16.1 nM
- TGI [5]: 54.6 nM
- GI50 [6]: 13.7 nM
- TGI [6]: 49.9 nM
- GI50 [7]: 20.8 nM
- TGI [7]: > 8450 nM
- GI50 [8]: 27.7 nM
- TGI [8]: > 16700 nM
- GI50 [9]: 36.7 nM
- TGI [9]: 4300 nM
- GI50 [10]: 45.8 nM
- TGI [10]: > 16700 nM
- GI50 [11]: 118 nM
- TGI [11]: > 16700 nM
- GI50 [12]: 24.3 nM
- TGI [12]: 7140 nM
- GI50 [13]: 34.4 nM
- TGI [13]: > 16700 nM
- GI50 [14]: 203 nM
- TGI [14]: 1460 nM
- GI50 [15]: 81.8 nM
- TGI [15]: 419 nM
- GI50 [16]: 52.9 nM
- TGI [16]: 2730 nM
- GI50 [17]: 25.8 nM
- TGI [17]: > 16700 nM
- GI50 [18]: 70.7 nM
- TGI [18]: 460 nM
- GI50 [19]: 39.4 nM
- TGI [19]: > 16700 nM
- GI50 [20]: 113 nM
- TGI [20]: > 16700 nM
- GI50 [21]: 180 nM
- TGI [21]: > 3520 nM
- GI50 [22]: 17.6 nM
- TGI [22]: 1710 nM
- GI50 [23]: 31.5 nM
- TGI [23]: > 16700 nM
- GI50 [24]: 28.1 nM
- TGI [24]: 307 nM
- GI50 [25]: 22 nM
- TGI [25]: 5770 nM
- GI50 [26]: 1170 nM
- TGI [26]: 16300 nM
- GI50 [27]: 29.6 nM
- TGI [27]: 4660 nM
- GI50 [28]: 450 nM
- TGI [28]: > 16700 nM
- GI50 [29]: 24.7 nM
- TGI [29]: > 16700 nM
- GI50 [30]: 28.7 nM
- TGI [30]: 184 nM
- GI50 [31]: 71.4 nM
- GI50 [32]: 39.5 nM
- TGI [32]: 1020 nM
- GI50 [33]: 5.58 nM
- TGI [33]: 45.1 nM
- GI50 [34]: 42.9 nM
- TGI [34]: > 16700 nM
- GI50 [35]: 496 nM
- TGI [35]: > 16700 nM
- GI50 [36]: 283 nM
- TGI [36]: > 16700 nM
- GI50 [37]: 41.9 nM
- TGI [37]: > 6220 nM
- GI50 [38]: 14.3 nM
- TGI [38]: 31.8 nM
- GI50 [39]: 19.6 nM
- TGI [39]: 88.2 nM
- GI50 [40]: 102 nM
- TGI [40]: 872 nM
- GI50 [41]: 16.7 nM
- TGI [41]: 130 nM
- GI50 [42]: 16.2 nM
- TGI [42]: 52.5 nM
- GI50 [43]: 13.9 nM
- TGI [43]: 39.3 nM
- GI50 [44]: 58 nM
- TGI [44]: 2310 nM
- GI50 [45]: 56 nM
- TGI [45]: 236 nM
- GI50 [46]: 46.6 nM
- TGI [46]: > 12900 nM
- GI50 [47]: 75.2 nM
- TGI [47]: 3250 nM
- GI50 [48]: 28.9 nM
- TGI [48]: 108 nM
- GI50 [49]: 41.4 nM
- TGI [49]: > 16700 nM
- GI50 [50]: 28.1 nM
- TGI [50]: > 16700 nM
- GI50 [51]: 217 nM
- TGI [51]: > 14000 nM
- GI50 [52]: 30.7 nM
- TGI [52]: 89.5 nM
- GI50 [53]: 54.1 nM
- TGI [53]: 262 nM
- GI50 [54]: 42 nM
- TGI [54]: 541 nM
- GI50 [55]: 26.3 nM
- TGI [55]: 3720 nM
- GI50 [56]: 43.2 nM
- TGI [56]: 312 nM
